Source: US20130005568A1, “SAFENED HERBICIDAL MIXTURES” (E.I. DU PONT DE NEMOURS AND COMPANY, priority 2011, published 2013)

How the values were obtained:
Dandelion = experiment: Test G: turf grass and weed postemergence plant response rating; format: in vivo, Taraxacum officinale Weber in Wiggers; conditions: Compound 1 alone 125 g ai/ha; Test G plants
Source text: (§1) For all of the following biological tests, plant response ratings were based on a 0-100 scale where zero is growth equivalent to that of untreated plants (no plant response) and 100 represents no additional growth occurring after herbicide treatment.
(§2) Plants of the turf grass species: zoysia (Zoysia japonica Steud.), bermudagrass (Cynodon dactylon (L.) Pers.), tall fescue (Festuca arundinacea Shreib.), creeping bentgrass (Agrostis stoonoifera L.), perennial ryegrass (Lolium perenne L.) and hard fescue (Festuca species) were grown under greenhouse conditions for four months. Plants were clipped as needed to plant heights of 5-10 cm. Weeds typically found in turf: annual bluegrass (Poa annua L.), common chickweed (Stellaria media (L.) Vill.), large crabgrass (Digitaria sanguinales (L.) Scop.), dandelion (Taraxacum officinale Weber in Wiggers), goosegrass (Eleusine indica (L.) Gaertn.), henbit (Lamium amplexicaule L.), venice mallow (Hibiscus trionium L.) and purple nutsedge (Cyperus rotundus L.) were also grown under greenhouse conditions so that plants were 5-20 cm tall when they were treated. Herbicide mixtures were formulated, dissolved/dispersed in water containing 0.25% non-ionic surfactant, and sprayed postemergence to these turf grasses and weeds. Treated plants were grown under greenhouse conditions for three weeks before visual evaluations of plant responses were recorded.

soybean = experiment: Test I: postemergence plant response rating; format: in vivo, Glycine max (L.) Merr.; conditions: Compound 1 alone 125 g ai/ha; Test I plants
Source text: as §1
(§3) Herbicide mixtures were formulated, dissolved/dispersed in water containing 0.25% non-ionic surfactant, and sprayed postemergence to the crop: soybean (Glycine max (L.) Merr.) at the 2-leaf growth stage and to weeds: lambsquarters (Chenopodium album L.) and velvetleaf (Abutilon theophrasti Medik.). Weed species were 5-10 cm tall when treated. Treated plants were grown under greenhouse conditions for two weeks before visual evaluations of plant responses were recorded.

lambsquarters = experiment: Test I: postemergence plant response rating; format: in vivo, Chenopodium album L.; conditions: Compound 1 alone 125 g ai/ha; Test I plants
Source text: as §1, §3

blackgrass [1] = experiment: Test F: preemergence plant response rating; format: in vivo, Alopecurus myosuroides Huds; conditions: Compound 1 alone 125 g ai/ha; Test F plants
Source text: as §1
Herbicide mixtures were formulated, dissolved/dispersed in water, and sprayed preemergence to the crops: winter wheat (Triticum aestivum L.) and winter barley (Hordeum vulgare L.), and the weed: blackgrass (Alopecurus myosuroides Huds). Treated plants were grown under greenhouse conditions for three weeks before visual evaluations of plant responses were recorded.

blackgrass [2] = experiment: Test E: postemergence plant response rating; format: in vivo, Alopecurus myosuroides Huds.; conditions: Compound 1 alone 125 g ai/ha; Test E plants
Source text: as §1
Herbicide mixtures were formulated, dissolved/dispersed in water containing 0.25% non-ionic surfactant, sprayed postemergence to the crops: winter wheat (Triticum aestivum L.), spring wheat (Triticum aestivum L.), winter barley (Hordeum vulgare L.) and spring barley (Hordeum vulgare L.), and the weeds: blackgrass (Alopecurus myosuroides Huds.), lambsquarters (Chenopodium album L.) and pigweed (Amaranthus retroflexus L.). Treated plants were grown under greenhouse conditions for two weeks before visual evaluations of plant responses were recorded.

sugarcane = experiment: Test J: sugarcane postemergence plant response rating, field conditions; format: in vivo, Saccharum officinarum L.; conditions: Compound 1 alone 140 g ai/ha; Test J
Procedure: as §1
Herbicide mixtures were formulated, dissolved/dispersed in water containing 0.25% non-ionic surfactant, and sprayed postemergence to sugarcane (Saccharum officinarum L.) approximately 20-40 cm tall (extended leaf height). This test was conducted under field conditions. Visual evaluations of plant responses were recorded four weeks after the plants were treated.

Hard fescue = experiment: Test G: turf grass and weed postemergence plant response rating; format: in vivo, Festuca species; conditions: Compound 1 alone 125 g ai/ha; Test G plants
Source text: as §1, §2

Chickweed = experiment: as above; format: in vivo, Stellaria media (L.) Vill.; conditions: Compound 1 alone 125 g ai/ha; Test G plants
Source text: as §1, §2

Annual bluegrass = experiment: as above; format: in vivo, Poa annua L.; conditions: Compound 1 alone 125 g ai/ha; Test G plants
Source text: as §1, §2

Goosegrass = experiment: as above; format: in vivo, Eleusine indica (L.) Gaertn.; conditions: Compound 1 alone 125 g ai/ha; Test G plants
Source text: as §1, §2

Surinam grass = experiment: Test K: pasture grass postemergence plant response rating, field conditions; format: in vivo, Brachiaria decumbens Stapf; conditions: Compound 1 alone 140 g ai/ha; Test K plants
Source text: as §1
Herbicide mixtures were formulated, dissolved/dispersed in water containing 0.25% non-ionic surfactant, and sprayed postemergence to the pasture grasses: Surinam grass (Brachiaria decumbens Stapf), palisade grass (Brachiaria brizantha (Hochst. ex A. Rich) Stapf) and Alexandergrass (Brachiaria plantaginea (Link) A. S. Hitchc.) approximately 10-30 cm tall (extended leaf height). This test was conducted under field conditions. Visual evaluations of plant responses were recorded four weeks after the plants were treated.

Venice mallow = experiment: Test G: turf grass and weed postemergence plant response rating; format: in vivo, Hibiscus trionium L.; conditions: Compound 1 alone 125 g ai/ha; Test G plants
Source text: as §1, §2

Tall fescue = experiment: as above; format: in vivo, Festuca arundinacea Shreib.; conditions: Compound 1 alone 125 g ai/ha; Test G plants
Source text: as §1, §2

sorghum hybrid WL09-6002 = test system: sorghum hybrid WL09-6002; parameters: species or system Sorghum bicolor (L.) Moench; conditions: in vivo
Source text: as §1
(§4) Cultivated sorghum varieties are generally very sensitive to acetohydroxy acid synthase-inhibiting herbicides such as rimsulfuron. To impart tolerance in sorghum hybrids WL09-6001 and WL09-6002 used in this test, plant breeders introduced a gene for acetohydroxy acid synthase (also known as acetolactate synthase) resistant to inhibition by certain acetohydroxy acid synthase-inhibiting herbicides, by breeding starting from a wild Sorghum genotype containing the resistance gene (see U.S. Patent Publication US 2008/0216187 A1).
(§5) Herbicide mixtures were formulated, dissolved/dispersed in water containing 1% crop oil concentrate, and sprayed postemergence to sorghum (Sorghum bicolor (L.) Moench) in the third collar growth stage (extended leaf height is 10-20 cm). Treated plants were grown under greenhouse conditions for two weeks before visual evaluations of plant responses were recorded.

sorghum hybrid WL09-6001 = test system: sorghum hybrid WL09-6001; parameters: species or system Sorghum bicolor (L.) Moench; conditions: in vivo
Source text: as §1, §4, §5

Measured: injury, Compound 1 alone

Cc1ccccc1S(=O)(=O)NC(N)=O [Compound 1, N-(aminocarbonyl)-2-methylbenzenesulfonamide]
no injury: all assays above
